Results: patent US20230389548A1, “MIXTURES OF PYRIMIDINES AS HERBICIDAL COMPOSITIONS” (SYNGENTA CROP PROTECTION AG, priority 2020, published 2023)

What was measured:
Assay in all cases: Post-emergence glasshouse spray test, visual percentage phytotoxicity after 13 days
Format in all cases: in vivo
[1] = tested on: Echinochloa crus-galli (ECHCG); settings: for ECHCG percentage phytotoxicity: B1; for Observed phytotoxicity ECHCG: B2.3.2
Procedure: (§1) Seeds of Setaria faberi (SETFA), Echinochloa crus-galli (ECHCG), Digitaria sanguinalis (DIGSA), Lolium perenne (LOLPE), Alopecurus myosuroides (ALOMY), Chenopodium album (CHEAL), Ipomoea hederacea (IPOHE), Stellaria media (STEME), Abutilon threophrasti (ABUTH), Amaranthus retroflexus (AMARE) were sown in standard sterilised soil in pots. After cultivation for 8 days under controlled conditions in a glasshouse (at 24/19° C., day/night; 16 hours light; no humidity control), the plants were sprayed at 500 l/Ha with an aqueous spray solution derived from the formulation of the technical active ingredients in a small amount of acetone and a solvent and emulsifier mixture referred to as IF50 (11.12% Emulsogen EL360™+44.44% N-methylpyrrolidone+44.44% Dowanol DPM glycol ether), to create a 50 g/l solution which was then diluted using 0.2% Genapol XO80 (CAS Number: 9043-30-5) as diluent to give the desired final dose of test compound.
(§2) Where active ingredients were applied as mixtures, aqueous spray solutions were prepared as above, containing both active ingredients.
(§3) The test plants were then grown under controlled conditions in a glasshouse (at 24/18° C., day/night; 15 hours light; 50% humidity) and watered twice daily. After 13 days, the test was evaluated visually for percentage phytotoxicity to the plants (where 100=total damage to plant; 0=no damage to plant; and NC=not captured) when compared to control untreated plants. Two to four replicates were applied for each treatment in a randomised block test design.
(§4) 22., E=X+Y−(X*Y/100), where
(§5) X=average percent phytotoxicity of herbicide A when applied at a certain rate Y=average percent phytotoxicity using herbicide B when applied at a certain rate E=the expected effect of the mixture of herbicides A and B as calculated from the Colby formula.

Setaria faberi (SETFA) = settings: for SETFA percentage phytotoxicity: B1; for Observed phytotoxicity SETFA: B2.3.1
Procedure: as §1, §2, §3, §4, §5

Lolium perenne (LOLPE) = settings: for LOLPE percentage phytotoxicity: B1; for Observed phytotoxicity LOLPE: B2.3.4
Procedure: as §1, §2, §3, §4, §5

[2] = tested on: Abutilon threophrasti (ABUTH); settings: B1
Procedure: as §1, §2, §3, §4, §5

[3] = tested on: Amaranthus retroflexus (AMARE); settings: B1
Procedure: as §1, §2, §3, §4, §5

[4] = tested on: Chenopodium album (CHEAL); settings: B1
Procedure: as §1, §2, §3, §4, §5

Stellaria media (STEME) = settings: for STEME percentage phytotoxicity: B1
Procedure: as §1, §2, §3, §4, §5

[5] = tested on: Digitaria sanguinalis (DIGSA); settings: for DIGSA percentage phytotoxicity: B1
Procedure: as §1, §2, §3, §4, §5

[6] = tested on: Alopecurus myosuroides (ALOMY); settings: for ALOMY percentage phytotoxicity: B1
Procedure: as §1, §2, §3, §4, §5

[7] = tested on: Ipomoea hederacea (IPOHE); settings: for IPOHE percentage phytotoxicity: B1
Procedure: as §1, §2, §3, §4, §5

Structure (SMILES): CCOC(=O)COc1ncccc1Oc1cc(-n2c(=O)cc(C(F)(F)F)n(C)c2=O)c(F)cc1Cl [B-V]
- ECHCG percentage phytotoxicity ([1]; 0.31 g/ha post-emergence): 5%
- ECHCG percentage phytotoxicity ([1]; 0.625 g/ha post-emergence): 3%
- ECHCG percentage phytotoxicity ([1]; 1.25 g/ha post-emergence): 9%
- ECHCG percentage phytotoxicity ([1]; 2.5 g/ha post-emergence): 23%
- ECHCG percentage phytotoxicity ([1]; 5 g/ha post-emergence): 65%
- Observed phytotoxicity ECHCG ([1]; 0.625 g/ha post-emergence): 3%
- Observed phytotoxicity ECHCG ([1]; 1.25 g/ha post-emergence): 9%
- Observed phytotoxicity ECHCG ([1]; 2.5 g/ha post-emergence): 23%
- SETFA percentage phytotoxicity (Setaria faberi (SETFA); 0.31 g/ha post-emergence): 30%
- SETFA percentage phytotoxicity (Setaria faberi (SETFA); 0.625 g/ha post-emergence): 38%
- SETFA percentage phytotoxicity (Setaria faberi (SETFA); 1.25 g/ha post-emergence): 85%
- SETFA percentage phytotoxicity (Setaria faberi (SETFA); 2.5 g/ha post-emergence): 99%
- SETFA percentage phytotoxicity (Setaria faberi (SETFA); 5 g/ha post-emergence): 100%
- Observed phytotoxicity SETFA (Setaria faberi (SETFA); 0.625 g/ha post-emergence): 38%
- Observed phytotoxicity SETFA (Setaria faberi (SETFA); 1.25 g/ha post-emergence): 85%
- LOLPE percentage phytotoxicity (Lolium perenne (LOLPE); 0.31 g/ha post-emergence): 2%
- LOLPE percentage phytotoxicity (Lolium perenne (LOLPE); 0.625 g/ha post-emergence): 0%
- LOLPE percentage phytotoxicity (Lolium perenne (LOLPE); 1.25 g/ha post-emergence): 8%
- LOLPE percentage phytotoxicity (Lolium perenne (LOLPE); 2.5 g/ha post-emergence): 15%
- LOLPE percentage phytotoxicity (Lolium perenne (LOLPE); 5 g/ha post-emergence): 25%
- Observed phytotoxicity LOLPE (Lolium perenne (LOLPE); 1.25 g/ha post-emergence): 8%
- Observed phytotoxicity LOLPE (Lolium perenne (LOLPE); 2.5 g/ha post-emergence): 15%
- ABUTH percentage phytotoxicity ([2]; 0.31 g/ha post-emergence): 97%
- ABUTH percentage phytotoxicity ([2]; 0.625 g/ha post-emergence): 98%
- ABUTH percentage phytotoxicity ([2]; 1.25 g/ha post-emergence): 100%
- ABUTH percentage phytotoxicity ([2]; 2.5 g/ha post-emergence): 100%
- ABUTH percentage phytotoxicity ([2]; 5 g/ha post-emergence): 100%
- AMARE percentage phytotoxicity ([3]; 0.31 g/ha post-emergence): 98%
- AMARE percentage phytotoxicity ([3]; 0.625 g/ha post-emergence): 98%
- AMARE percentage phytotoxicity ([3]; 1.25 g/ha post-emergence): 100%
- AMARE percentage phytotoxicity ([3]; 2.5 g/ha post-emergence): 100%
- AMARE percentage phytotoxicity ([3]; 5 g/ha post-emergence): 100%
- CHEAL percentage phytotoxicity ([4]; 0.31 g/ha post-emergence): 85%
- CHEAL percentage phytotoxicity ([4]; 0.625 g/ha post-emergence): 96%
- CHEAL percentage phytotoxicity ([4]; 1.25 g/ha post-emergence): 93%
- CHEAL percentage phytotoxicity ([4]; 2.5 g/ha post-emergence): 100%
- CHEAL percentage phytotoxicity ([4]; 5 g/ha post-emergence): 100%
- STEME percentage phytotoxicity (Stellaria media (STEME); 0.31 g/ha post-emergence): 25%
- STEME percentage phytotoxicity (Stellaria media (STEME); 0.625 g/ha post-emergence): 83%
- STEME percentage phytotoxicity (Stellaria media (STEME); 1.25 g/ha post-emergence): 83%
- STEME percentage phytotoxicity (Stellaria media (STEME); 2.5 g/ha post-emergence): 100%
- STEME percentage phytotoxicity (Stellaria media (STEME); 5 g/ha post-emergence): 100%
- Observed phytotoxicity STEME (Stellaria media (STEME); B2.3.7, 0.3125 g/ha post-emergence): 25%
- DIGSA percentage phytotoxicity ([5]; 0.31 g/ha post-emergence): 13%
- DIGSA percentage phytotoxicity ([5]; 0.625 g/ha post-emergence): 43%
- DIGSA percentage phytotoxicity ([5]; 1.25 g/ha post-emergence): 88%
- DIGSA percentage phytotoxicity ([5]; 2.5 g/ha post-emergence): 99%
- DIGSA percentage phytotoxicity ([5]; 5 g/ha post-emergence): 100%
- Observed phytotoxicity DIGSA ([5]; B2.3.3, 0.625 g/ha post-emergence): 43%
- ALOMY percentage phytotoxicity ([6]; 0.31 g/ha post-emergence): 2%
- ALOMY percentage phytotoxicity ([6]; 0.625 g/ha post-emergence): 2%
- ALOMY percentage phytotoxicity ([6]; 1.25 g/ha post-emergence): 10%
- ALOMY percentage phytotoxicity ([6]; 2.5 g/ha post-emergence): 20%
- ALOMY percentage phytotoxicity ([6]; 5 g/ha post-emergence): 28%
- Observed phytotoxicity ALOMY ([6]; B2.3.5, 1.25 g/ha post-emergence): 10%
- IPOHE percentage phytotoxicity ([7]; 0.31 g/ha post-emergence): 58%
- IPOHE percentage phytotoxicity ([7]; 0.625 g/ha post-emergence): 70%
- IPOHE percentage phytotoxicity ([7]; 1.25 g/ha post-emergence): 100%
- IPOHE percentage phytotoxicity ([7]; 2.5 g/ha post-emergence): 100%
- IPOHE percentage phytotoxicity ([7]; 5 g/ha post-emergence): 100%
- Observed phytotoxicity IPOHE ([7]; B2.3.6, 0.3125 g/ha post-emergence): 58%
